System: rat isolated uterus
Assay: Uterotonic (oxytocic) activity on isolated uterus of stilbestrol-primed rats, compared with 5-HT
Parameters: species or system Wistar female albino rats
Conditions: isolated uterus horn of stilbestrol dipropionate (1 mg/kg i.p., 24 h) pre-treated rats, de Jalon's solution
Method: The above two samples were assayed for their effect on Uterotonic activity using Wistar female albino rats.
The uterotonic property of the test extracts were assessed in two test areas.
1. The oxytocic activity of the Sample A and Sample B is compared with uterine stimulant 5-HT.
Female rats weighing between 150-200 g were pre-treated with stilbestrol dipropionate, 1 mg/kg intra peritoneally 24 h prior to the experiment. The rats were killed by a swift blow on the head and exsanguinated. The uterus of rat dissected and the two horns divided. One horn is suspended in the bath. The rhythmic contractions are abolished by using de jalon's solution. When the spontaneous contractions became regular, the responses to Extracts of Sample A and Sample B and other agonists were recorded using a Frontal lever, isometrically connected to a polygraph.

CN1CC(=O)N=C1N.NCCc1c[nH]c2ccc(O)cc12.O=S(=O)(O)O [Formulation 5-HT, 5-hydroxytryptamine creatinine sulphate]
In-vitro treatment (uterine contraction): 1. The control drug 5-HT induced a dose related increase in the height of contraction of rat isolated uterus. and Uterine contraction
